In patent publication US11547652B2, “Combination products and cosmetic compositions for controlling skin disorders and skin aging that affect keratinocytes and/or fibroblasts and the dermis” (NUTRICOS Technologies, priority 2014, dated 2023):

Columns and labels:
[1] = system: NHDF cells (Normal Human Dermal Fibroblasts); assay: Hyaluronic acid production by NHDF cells (ELISA on supernatant); assay type: cell-based; settings: 72 hours, glucosamine 0.1 to 100 μg/ml, hyaluronic acid 40 to 6000 ng/ml, source of collagen and hyaluronic acid 4 to 4000 ng/ml, FIG. 2
Experimental: Normal human dermal fibroblasts (NHDF) were cultured at 37° C. under 5% CO2 in a DMEM culture medium supplemented with glutamine (2 mM); calf serum (1%), penicillin (50 U/ml) and streptomycin ([…]). Glucosamine (0.1 to 100 μg/ml) and/or hyaluronic acid (from 40 to 6000 ng/ml) and/or a source of collagen and hyaluronic acid (in a ratio of between 0.07% and 15%) at concentrations ranging from 4 to 4000 ng/ml were then added to the cultivation medium alone or in combination. After 72 hours of cultivation under these conditions, the supernatant was collected to quantify the hyaluronic acid produced by the cells using an ELISA Duoset Hyaluronan kit marketed by the company R & D System (DY3614 reference).

[2] = system: NHEK cells (Normal Human Epidermal Keratinocytes); assay: Hyaluronic acid production by NHEK cells (ELISA on supernatant); assay type: cell-based; settings: 72 hours of cultivation, hyaluronic acid 40 to 6000 ng/ml, glucosamine sulfate 0.25 to 25 μg/ml, FIG. 1
Experimental: Normal human epidermal keratinocytes were cultured at 37° C. under 5% CO2 in a medium keratinocyte-SFM culture, supplemented with epidermal growth factor (EGF; 0.25 ng/ml), a pituitary extract (25 μg/ml) and an antibiotic (gentamicin 25 μg/ml) in 96-well plates for 24 h without stimulation. Glucosamine and/or hyaluronic acid are then added to the cultivation medium alone or in combination at concentrations of 40 to 6000 ng/ml hyaluronic acid and 0.25 to 25 μg/ml to glucosamine sulfate. After 72 hours of cultivation under these conditions, the supernatant was collected to quantify the hyaluronic acid produced by the cells using an ELISA Duoset Hyaluronan kit marketed by the company R & D System (DY3614 reference).

| Molecule | hyaluronic acid production by human fibroblasts in vitro [1] | hyaluronic acid production by human keratinocytes in vitro [2] |
| --- | --- | --- |
| N[C@H]1C(O)O[C@H](CO)[C@@H](O)[C@@H]1O.O=S(=O)(O)O (stereo partly shown) [glucosamine sulfate] | lack of stimulation | induction of hyaluronic acid production |
| hyaluronic acid | did not stimulate the synthesis of hyaluronic acid | does not stimulate the synthesis of hyaluronic acid |
